The values below come from patent EP4678638A1, “NEW E3 UBIQUITIN LIGASE LIGAND, PROTEIN DEGRADATION AGENT AND USE THEREOF” (priority 2023, dated 2024).

For one experiment, the system named is H1975. Briefly: CCK-8 proliferation, NCI-H1975 (H1975). It is filed as cell-based, Human. The settings on record: Homo sapiens, NCI-H1975; CCK-8; 96 hours; read-out: Inhibitory activity (IC50) on tumor cell proliferation, H1975. An outline of the steps: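 Tumor cells were cultured at 37°C with 5% CO2, seeded, and after 24h treated with compounds at 10 concentrations starting at 10µM (5-fold serial dilutions).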

Another experiment has as its system EGFR. Kind of experiment: Western blot degradation of EGFR (H1975 Cell). It is filed as cell-based, Human. The settings on record: Table D2. As for the experimental part: Conventional Western blot assay was performed to evaluate the effects of the compounds of the present disclosure on the expression of target proteins in cells.
(1) Cell Seeding and Protein Harvesting: The selected cells were processed according to the cell seeding procedure and protein harvesting procedure in Table III-2. Table III-2 Cell Seeding and Protein Harvesting Procedures
(2) To the collected supernatant, 5X SDS sample loading buffer was added, followed by denaturation at 95°C for 5 minutes. The denatured samples were then separated by SDS-PAGE electrophoresis on a polyacrylamide gel. Proteins were transferred to a nitrocellulose membrane (0.45 µm NC membrane), blocked with blocking buffer at room temperature for 1 hour, and subjected to antibody incubation and development procedures according to the antibody manufacturer's instructions (Cell Signaling Technology).
Half-Maximal Degradation Concentration value (the drug concentration required for degrading proteins by 50%, abbreviated as DC50) reads method: comparing the grayscale values of Western blot bands from drug-treated samples with those from blank DMSO-treated controls, and identifying the drug concentration range at which the grayscale value is half that of the DMSO-treated control bands.
DC50 values can be calculated using ImageJ software to measure grayscale values of Western blot bands from drug-treated samples. The concentration-response curve is fitted to estimate the drug concentration corresponding to half the grayscale value.
Target protein remaining (%) refers to the percentage of target protein remaining in hPBMC cells after treatment with protein degrader compounds.
Calculation method for target protein remaining (%): Use ImageJ software to measure grayscale values of Western blot bands from drug (protein degrader)-treated samples. The grayscale value of drug-treated bands is divided by that of internal control protein bands, and the resulting quotient is normalized to obtain the relative percentage of remaining target protein after protein degrader treatment.
Target protein degradation rate (%) = 100% - target protein remaining (%).
(In western blotting, separated proteins are transferred to a membrane and probed.)

Turning to `O=C1CCC(c2ccc(CN3C[C@H]4C[C@@H]3CN4c3ccc(-c4cc(F)c5c(c4)C(=O)N(C(C(=O)Nc4nccs4)c4ncn6c4CCC6)C5)cc3)nc2)C(=O)N1` (stereo partly drawn) [GT-07389, 2-(6,7-dihydro-5H-pyrrolo[1,2-c]imidazol-1-yl)-2-(6-(4-((1R,4R)-5-((5-(2,6-dioxopiperidin-3-yl)pyridin-2-yl)methyl)-2,5-diazabicyclo[2.2.1]heptan-2-yl)phenyl)-4-fluoro-1-oxoisoindolin-2-yl)-N-(thiazol-2-yl)acetamide], the IC50 with H1975 lay within 1 to 10 nM. The “Degradation of substrate protein EGFR (substrate protein remaining %)” value (from here on “Degradation … (substrate protein remaining %)”) in the experiment with EGFR is on record as “A (A is defined as 0% ≤ substrate protein remaining % ≤ 80%)”.

As for `O=C1CCC(Nc2cccc(CN3C[C@@H]4C[C@H]3CN4c3ccc(-c4cc(F)c5c(c4)C(=O)N(C(C(=O)Nc4nccs4)c4ncn6c4CCC6)C5)cc3)c2)C(=O)N1` (stereo partly drawn) [GT-05118, 2-(6,7-dihydro-5H-pyrrolo[1,2-c]imidazol-1-yl)-2-(6-(4-((1S,4S)-5-(3-((2,6-dioxopiperidin-3-yl)amino)benzyl)-2,5-diazabicyclo[2.2.1]heptan-2-yl)phenyl)-4-fluoro-1-oxoisoindolin-2-yl)-N-(thiazol-2-yl)acetamide], the IC50 with H1975 lay within 50 to 100 nM. The “Degradation … (substrate protein remaining %)” value in the experiment on EGFR was “A (A is defined as 0% ≤ substrate protein remaining % ≤ 80%)”. Taken in the same sequence, the figures for `O=C1CCN(c2ccc(CN3CCN(C4CCN(c5ccc(-c6cc(F)c7c(c6)C(=O)N(C(C(=O)Nc6nccs6)c6ncn8c6CCC8)C7)cc5)CC4(F)F)CC3)cc2)C(=O)N1` (stereo not drawn) [GT-06318, 2-(6,7-dihydro-5H-pyrrolo[1,2-c]imidazol-1-yl)-2-(6-(4-(4-(4-(4-(2,4-dioxotetrahydropyrimidin-1(2H)-yl)benzyl)piperazin-1-yl)-3,3-difluoropiperidin-1-yl)phenyl)-4-fluoro-1-oxoisoindolin-2-yl)-N-(thiazol-2-yl)acetamide] were 10 to 50 nM and “A (A is defined as 0% ≤ substrate protein remaining % ≤ 80%)”.

`O=C1CCN(c2ccc(CN3C[C@H]4C[C@@H]3CN4c3ccc(-c4cc(F)c5c(c4)C(=O)N(C(C(=O)Nc4nccs4)c4ncn6c4CCC6)C5)cc3)cc2)C(=O)N1` (stereo partly drawn) [GT-06177, 2-(6,7-dihydro-5H-pyrrolo[1,2-c]imidazol-1-yl)-2-(6-(4-((1R,4R)-5-(4-(2,4-dioxotetrahydropyrimidin-1(2H)-yl)benzyl)-2,5-diazabicyclo[2.2.1]heptan-2-yl)phenyl)-4-fluoro-1-oxoisoindolin-2-yl)-N-(thiazol-2-yl)acetamide]: the IC50 with H1975 was in the range of 1 to 10 nM. Also, the “Degradation … (substrate protein remaining %)” value in the experiment on EGFR is “A (A is defined as 0% ≤ substrate protein remaining % ≤ 80%)”. On the same counts, the results for `O=C1CCC(c2ccc(CN3CCC(N4CCN(c5ccc(-c6cc(F)c7c(c6)C(=O)N(C(C(=O)Nc6nccs6)c6ncn8c6CCC8)C7)cc5)CC4)CC3)cc2)C(=O)N1` (stereo not drawn) [GT-06326, 2-(6,7-dihydro-5H-pyrrolo[1,2-c]imidazol-1-yl)-2-(6-(4-(4-(1-(4-(2,6-dioxopiperidin-3-yl)benzyl)piperidin-4-yl)piperazin-1-yl)phenyl)-4-fluoro-1-oxoisoindolin-2-yl)-N-(thiazol-2-yl)acetamide] are 10 to 50 nM and “A (A is defined as 0% ≤ substrate protein remaining % ≤ 80%)”. Turning to `O=C1CCC(Nc2cccc(CN3CCN(C4CCN(c5ccc(-c6cc(F)c7c(c6)C(=O)N(C(C(=O)Nc6nccs6)c6ncn8c6CCC8)C7)cc5)CC4(F)F)CC3)c2)C(=O)N1` (stereo not drawn) [GT-06321, 2-(6,7-dihydro-5H-pyrrolo[1,2-c]imidazol-1-yl)-2-(6-(4-(4-(4-(3-((2,6-dioxopiperidin-3-yl)amino)benzyl)piperazin-1-yl)-3,3-difluoropiperidin-1-yl)phenyl)-4-fluoro-1-oxoisoindolin-2-yl)-N-(thiazol-2-yl)acetamide], the IC50 in the experiment with H1975 lay in the range of 10 to 50 nM. Further, in the experiment on EGFR, the “Degradation … (substrate protein remaining %)” value is listed as “A (A is defined as 0% ≤ substrate protein remaining % ≤ 80%)”.

Regarding `O=C1CCC(c2cc(CN3C[C@H]4C[C@@H]3CN4c3ccc(-c4cc(F)c5c(c4)C(=O)N(C(C(=O)Nc4nccs4)c4ncn6c4CCC6)C5)cc3)ccn2)C(=O)N1` (stereo partly drawn) [GT-07390, 2-(6,7-dihydro-5H-pyrrolo[1,2-c]imidazol-1-yl)-2-(6-(4-((1R,4R)-5-((2-(2,6-dioxopiperidin-3-yl)pyridin-4-yl)methyl)-2,5-diazabicyclo[2.2.1]heptan-2-yl)phenyl)-4-fluoro-1-oxoisoindolin-2-yl)-N-(thiazol-2-yl)acetamide], the IC50 in the experiment on H1975 was in the range of 1 to 10 nM. Besides, the “Degradation … (substrate protein remaining %)” value in the experiment with EGFR was “A (A is defined as 0% ≤ substrate protein remaining % ≤ 80%)”. In the case of `CCn1nc(N2CCC(N(C)Cc3ccc(N4CCC(=O)NC4=O)nc3)CC2)c2cnc(Nc3ccnc(-c4cnn(S(=O)(=O)C5CC5)c4)n3)cc21` [GT-06022, 1-(5-(((1-(6-((2-(1-(cyclopropylsulfonyl)-1H-pyrazol-4-yl)pyrimidin-4-yl)amino)-1-ethyl-1H-pyrazolo[4,3-c]pyridin-3-yl)piperidin-4-yl)(methyl)amino)methyl)pyridin-2-yl)dihydropyrimidine-2,4(1H,3H)-dione], the “Degradation … (substrate protein remaining %)” value in the experiment on EGFR is on record as “A (A is defined as 0% ≤ substrate protein remaining % ≤ 80%)”. Same read-out and setting: for `COc1cc(N2CCC(N(C)Cc3ccc(C4CCC(=O)NC4=O)c(F)c3)CC2)c(C)cc1Nc1ncc(Br)c(Nc2ccc3nccnc3c2P(C)(C)=O)n1` (stereo not drawn) [GT-03931, 3-(4-(((1-(4-((5-bromo-4-((5-(dimethylphosphoryl)quinoxalin-6-yl)amino)pyrimidin-2-yl)amino)-5-methoxy-2-methylphenyl)piperidin-4-yl)(methyl)amino)methyl)-2-fluorophenyl)piperidine-2,6-dione] the value was “A (A is defined as 0% ≤ substrate protein remaining % ≤ 80%)”; for `COc1cc(N2CCN(Cc3ccc(C4CCC(=O)NC4=O)cc3)CC2)c(C)cc1Nc1ncc(Br)c(Nc2ccc3nccnc3c2P(C)(C)=O)n1` (stereo not drawn) [GT-03913, 3-(4-((4-(4-((5-bromo-4-((5-(dimethylphosphoryl)quinoxalin-6-yl)amino)pyrimidin-2-yl)amino)-5-methoxy-2-methylphenyl)piperazin-1-yl)methyl)phenyl)piperidine-2,6-dione], “A (A is defined as 0% ≤ substrate protein remaining % ≤ 80%)”; for `COc1cc(N2CCN(Cc3ccc(C4CCC(=O)NC4=O)c(F)c3)CC2)c(C)cc1Nc1ncc(Br)c(Nc2ccc3nccnc3c2P(C)(C)=O)n1` (stereo not drawn) [GT-03914, 3-(4-((4-(4-((5-bromo-4-((5-(dimethylphosphoryl)quinoxalin-6-yl)amino)pyrimidin-2-yl)amino)-5-methoxy-2-methylphenyl)piperazin-1-yl)methyl)-2-fluorophenyl)piperidine-2,6-dione], “A (A is defined as 0% ≤ substrate protein remaining % ≤ 80%)”. Still for that read-out and setting: for `COC1CCN(c2nccc(Nc3cc4c(cn3)c(N3CCC(N(C)Cc5ccc(C6CCC(=O)NC6=O)cc5)CC3)nn4C(C)C)n2)CC1` (stereo not drawn) [GT-06120, 3-(4-(((1-(1-isopropyl-6-((2-(4-methoxypiperidin-1-yl)pyrimidin-4-yl)amino)-1H-pyrazolo[4,3-c]pyridin-3-yl)piperidin-4-yl)(methyl)amino)methyl)phenyl)piperidine-2,6-dione] the value was “A (A is defined as 0% ≤ substrate protein remaining % ≤ 80%)”; for `COC1CCN(c2nccc(Nc3cc4c(cn3)c(N3CCN(Cc5cccc(N6CCC(=O)NC6=O)c5)CC3)nn4C(C)C)n2)CC1` [GT-06038, 1-(3-((4-(1-isopropyl-6-((2-(4-methoxypiperidin-1-yl)pyrimidin-4-yl)amino)-1H-pyrazolo[4,3-c]pyridin-3-yl)piperazin-1-yl)methyl)phenyl)dihydropyr imidine-2,4(1H,3H)-dione], “A (A is defined as 0% ≤ substrate protein remaining % ≤ 80%)”. On to `CN(Cc1cccc(NC2CCC(=O)NC2=O)c1)C1CCN(c2ccc(Nc3ncc4nc(Nc5ccccc5)n(C5CCCC5)c4n3)cc2)CC1` (stereo not drawn) [GT-07094, 3-((3-(((1-(4-((9-cyclopentyl-8-(phenylamino)-9H-purin-2-yl)amino)phenyl)piperidin-4-yl)(methyl)amino)methyl)phenyl)amino)piperidine-2,6-dione], for which the “Degradation … (substrate protein remaining %)” value with EGFR was “A (A is defined as 0% ≤ substrate protein remaining % ≤ 80%)”.
